# Experimental data from paper doi:10.1101/2021.09.27.461913v1, “Interactions of cytosolic termini of the Jen1 monocarboxylate transporter are critical for trafficking, transport activity and endocytosis” (biorxiv, 2021).
# How the values were obtained:
# Assay in all cases: radiolabelled [3H]-xanthine uptake in intact  cells
# Format in all cases: cell-based, Aspergillus nidulans
# Settings in all cases: labelled compound
# UapA/Jen1NT94-CT33 = system: T1, UapA/Jen1NT94-CT33
# T1 construct: Jen1 1-94 / intact UapA / Jen1 584-616, GFP-tagged, GAL promoter, in S. cerevisiae; one polypeptide; with Carboxylic acid transporter protein homolog; Carboxylic acid transporter protein homolog
# UapA/Jen1CT33 = system: T2, UapA/Jen1CT33
# T2 construct: Jen1 residues 584-616 fused C-terminally to intact UapA, GFP-tagged, GAL promoter, in S. cerevisiae; one polypeptide; with Carboxylic acid transporter protein homolog
# UapA/Jen1NT94 = system: T3, UapA/Jen1NT94
# T3 construct: Jen1 residues 1-94 fused N-terminally to intact UapA, GFP-tagged, GAL promoter, in S. cerevisiae; one polypeptide; with Carboxylic acid transporter protein homolog
smiles,measurement,setting,value
O=c1[nH]c(=O)c2[nH]cnc2[nH]1 [xanthine],Km,UapA/Jen1NT94-CT33,101 ± 10 µM
same,Km,UapA/Jen1CT33,10 ± 3 µM
same,Km,UapA/Jen1NT94,5 ± 2 µM
